Laboratory results reported in publication PMC12670405, “Second-Generation AURKA-Targeting PROTACs: Structural Optimization toward in Vivo Degradation in Neuroblastoma” (Journal of Medicinal Chemistry, 2025).

Tests used:
Assay in all cases: KINOMEscan scanMAX
Type in all cases: binding
Settings in all cases: read-out: Percent Control
[1] = biological target: T1, ABL1(T315I)-phosphorylated (Homo sapiens, UniProt P00519, T315I)
T1 construct: purchased Eurofins Discovery (DiscoverX KINOMEscan scanMAX)
Experimental: (§1) The kinome-wide binding assay was performed by Eurofins Discovery using the scanMAX screening platform. More information can be found on the Eurofins Discovery Web site.

[2] = biological target: T2, ACVR1 (Homo sapiens, UniProt Q04771)
T2 construct: purchased Eurofins Discovery (DiscoverX KINOMEscan scanMAX)
Experimental: as §1

[3] = biological target: T3, ACVR2A (Homo sapiens, UniProt P27037)
T3 construct: purchased Eurofins Discovery (DiscoverX KINOMEscan scanMAX)
T3 sequence (P27037 20-513): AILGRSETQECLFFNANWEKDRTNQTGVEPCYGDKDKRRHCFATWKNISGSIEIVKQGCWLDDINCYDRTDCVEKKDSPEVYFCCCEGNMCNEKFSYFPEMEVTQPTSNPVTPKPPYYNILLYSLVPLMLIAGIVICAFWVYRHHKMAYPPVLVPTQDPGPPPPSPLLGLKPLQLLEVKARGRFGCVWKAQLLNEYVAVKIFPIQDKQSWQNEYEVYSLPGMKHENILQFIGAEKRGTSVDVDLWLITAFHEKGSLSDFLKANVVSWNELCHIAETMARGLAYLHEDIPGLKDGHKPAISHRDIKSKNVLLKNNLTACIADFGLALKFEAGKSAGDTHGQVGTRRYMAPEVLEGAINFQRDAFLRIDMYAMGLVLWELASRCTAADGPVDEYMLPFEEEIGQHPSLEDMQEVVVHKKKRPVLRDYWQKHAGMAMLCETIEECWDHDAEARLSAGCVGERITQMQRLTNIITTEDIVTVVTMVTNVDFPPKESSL
Experimental: as §1

[4] = biological target: T4, ANKK1 (Homo sapiens, UniProt Q8NFD2)
T4 construct: purchased Eurofins Discovery (DiscoverX KINOMEscan scanMAX)
T4 sequence (Q8NFD2 whole entry): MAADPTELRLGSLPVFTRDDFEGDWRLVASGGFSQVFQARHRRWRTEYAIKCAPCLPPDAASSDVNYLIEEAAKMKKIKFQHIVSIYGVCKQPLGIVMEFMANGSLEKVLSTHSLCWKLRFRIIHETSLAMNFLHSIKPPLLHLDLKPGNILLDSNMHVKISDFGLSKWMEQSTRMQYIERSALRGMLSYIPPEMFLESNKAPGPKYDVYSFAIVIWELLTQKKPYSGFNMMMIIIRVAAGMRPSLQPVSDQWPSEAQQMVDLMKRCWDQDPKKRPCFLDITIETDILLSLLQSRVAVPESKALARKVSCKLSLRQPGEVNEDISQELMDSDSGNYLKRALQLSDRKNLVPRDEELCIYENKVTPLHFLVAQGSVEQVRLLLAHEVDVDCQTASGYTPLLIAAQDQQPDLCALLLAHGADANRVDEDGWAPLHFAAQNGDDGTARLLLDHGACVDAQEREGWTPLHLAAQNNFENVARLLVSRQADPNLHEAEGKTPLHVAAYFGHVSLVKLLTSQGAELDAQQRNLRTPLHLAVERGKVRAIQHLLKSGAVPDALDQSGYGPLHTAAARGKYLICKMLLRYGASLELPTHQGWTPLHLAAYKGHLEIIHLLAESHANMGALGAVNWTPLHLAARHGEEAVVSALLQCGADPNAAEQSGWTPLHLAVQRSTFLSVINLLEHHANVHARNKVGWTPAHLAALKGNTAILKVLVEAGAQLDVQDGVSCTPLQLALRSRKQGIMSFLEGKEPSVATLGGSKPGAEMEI
Experimental: as §1

[5] = biological target: T5, ASK1 (Homo sapiens, UniProt Q99683)
T5 construct: purchased Eurofins Discovery (DiscoverX KINOMEscan scanMAX)
Experimental: as §1

[6] = biological target: T6, BMPR1B (Homo sapiens, UniProt O00238)
T6 construct: purchased Eurofins Discovery (DiscoverX KINOMEscan scanMAX)
T6 sequence (O00238 14-502): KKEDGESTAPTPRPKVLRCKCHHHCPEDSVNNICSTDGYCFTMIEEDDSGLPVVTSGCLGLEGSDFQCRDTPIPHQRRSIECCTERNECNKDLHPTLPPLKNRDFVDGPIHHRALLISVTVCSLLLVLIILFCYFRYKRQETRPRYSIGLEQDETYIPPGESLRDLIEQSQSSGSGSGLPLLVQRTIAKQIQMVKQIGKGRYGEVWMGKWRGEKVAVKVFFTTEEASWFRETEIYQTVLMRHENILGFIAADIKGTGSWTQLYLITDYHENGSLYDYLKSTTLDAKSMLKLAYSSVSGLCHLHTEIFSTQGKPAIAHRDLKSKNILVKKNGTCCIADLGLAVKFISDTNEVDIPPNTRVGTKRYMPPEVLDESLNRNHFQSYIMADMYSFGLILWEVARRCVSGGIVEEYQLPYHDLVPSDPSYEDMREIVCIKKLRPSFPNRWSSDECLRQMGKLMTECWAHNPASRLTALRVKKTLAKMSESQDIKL
Experimental: as §1

[7] = biological target: T7, BRSK2 (Homo sapiens, UniProt Q8IWQ3)
T7 construct: purchased Eurofins Discovery (DiscoverX KINOMEscan scanMAX)
Experimental: as §1

[8] = biological target: T8, CDC2L5 (Homo sapiens, UniProt Q14004)
T8 construct: purchased Eurofins Discovery (DiscoverX KINOMEscan scanMAX)
Experimental: as §1

[9] = biological target: T9, CDKL1 (Homo sapiens, UniProt Q00532)
T9 construct: purchased Eurofins Discovery (DiscoverX KINOMEscan scanMAX)
Experimental: as §1

[10] = biological target: T10, EGFR (Homo sapiens, UniProt P00533)
T10 construct: purchased Eurofins Discovery (DiscoverX KINOMEscan scanMAX)
Experimental: as §1

[11] = biological target: T11, EPHA2 (Homo sapiens, UniProt P29317)
T11 construct: purchased Eurofins Discovery (DiscoverX KINOMEscan scanMAX)
Experimental: as §1

[12] = biological target: T12, ERK2 (Homo sapiens, UniProt P28482)
T12 construct: purchased Eurofins Discovery (DiscoverX KINOMEscan scanMAX)
Experimental: as §1

[13] = biological target: T13, FGFR1 (Homo sapiens, UniProt P11362)
T13 construct: purchased Eurofins Discovery (DiscoverX KINOMEscan scanMAX)
Experimental: as §1

[14] = biological target: T14, FGFR3(G697C) (Homo sapiens, UniProt P22607, G697C)
T14 construct: purchased Eurofins Discovery (DiscoverX KINOMEscan scanMAX)
T14 sequence (P22607 23-806 G697C): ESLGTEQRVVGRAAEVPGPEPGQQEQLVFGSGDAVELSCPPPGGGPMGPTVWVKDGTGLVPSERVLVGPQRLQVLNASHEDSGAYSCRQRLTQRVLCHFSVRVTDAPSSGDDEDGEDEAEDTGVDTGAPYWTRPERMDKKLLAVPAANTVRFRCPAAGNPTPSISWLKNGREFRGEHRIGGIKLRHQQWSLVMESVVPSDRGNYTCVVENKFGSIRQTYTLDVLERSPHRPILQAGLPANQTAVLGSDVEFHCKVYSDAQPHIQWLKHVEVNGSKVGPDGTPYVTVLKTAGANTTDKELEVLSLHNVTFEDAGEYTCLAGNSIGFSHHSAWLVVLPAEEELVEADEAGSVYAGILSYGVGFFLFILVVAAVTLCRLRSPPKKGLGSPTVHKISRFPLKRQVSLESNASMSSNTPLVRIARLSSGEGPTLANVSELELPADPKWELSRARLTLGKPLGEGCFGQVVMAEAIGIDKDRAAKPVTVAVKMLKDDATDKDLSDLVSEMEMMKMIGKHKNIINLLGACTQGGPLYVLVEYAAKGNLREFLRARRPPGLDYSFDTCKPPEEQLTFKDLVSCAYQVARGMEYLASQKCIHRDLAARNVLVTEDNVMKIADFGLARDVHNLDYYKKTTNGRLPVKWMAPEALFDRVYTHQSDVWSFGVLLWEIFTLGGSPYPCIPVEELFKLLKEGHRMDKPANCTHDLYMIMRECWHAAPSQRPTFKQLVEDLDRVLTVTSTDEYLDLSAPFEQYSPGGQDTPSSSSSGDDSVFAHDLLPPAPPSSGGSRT
Experimental: as §1

[15] = biological target: T15, FLT3(D835H) (Homo sapiens, UniProt P36888, D835H)
T15 construct: purchased Eurofins Discovery (DiscoverX KINOMEscan scanMAX)
Experimental: as §1

[16] = biological target: T16, FLT3(D835V) (Homo sapiens, UniProt P36888, D835V)
T16 construct: purchased Eurofins Discovery (DiscoverX KINOMEscan scanMAX)
Experimental: as §1

[17] = biological target: T17, FLT3(K663Q) (Homo sapiens, UniProt P36888, K663Q)
T17 construct: purchased Eurofins Discovery (DiscoverX KINOMEscan scanMAX)
Experimental: as §1

[18] = biological target: T18, HIPK1 (Homo sapiens, UniProt Q86Z02)
T18 construct: purchased Eurofins Discovery (DiscoverX KINOMEscan scanMAX)
Experimental: as §1

[19] = biological target: T19, IRAK1 (Homo sapiens, UniProt P51617)
T19 construct: purchased Eurofins Discovery (DiscoverX KINOMEscan scanMAX)
Experimental: as §1

[20] = biological target: T20, MST2 (Homo sapiens, UniProt Q13188)
T20 construct: purchased Eurofins Discovery (DiscoverX KINOMEscan scanMAX)
Experimental: as §1

[21] = biological target: T21, NEK6 (Homo sapiens, UniProt Q9HC98)
T21 construct: purchased Eurofins Discovery (DiscoverX KINOMEscan scanMAX)
T21 sequence (Q9HC98 whole entry): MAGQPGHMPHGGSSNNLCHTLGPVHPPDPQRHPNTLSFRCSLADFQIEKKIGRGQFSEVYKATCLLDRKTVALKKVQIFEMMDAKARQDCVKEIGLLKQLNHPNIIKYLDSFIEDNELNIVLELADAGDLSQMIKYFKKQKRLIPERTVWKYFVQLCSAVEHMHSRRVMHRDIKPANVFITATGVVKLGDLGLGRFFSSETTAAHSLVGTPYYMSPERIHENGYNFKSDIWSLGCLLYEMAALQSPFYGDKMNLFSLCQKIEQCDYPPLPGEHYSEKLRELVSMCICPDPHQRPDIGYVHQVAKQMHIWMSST
Experimental: as §1

[22] = biological target: T22, NIK (Homo sapiens, UniProt Q99558)
T22 construct: purchased Eurofins Discovery (DiscoverX KINOMEscan scanMAX)
T22 sequence (Q99558 whole entry): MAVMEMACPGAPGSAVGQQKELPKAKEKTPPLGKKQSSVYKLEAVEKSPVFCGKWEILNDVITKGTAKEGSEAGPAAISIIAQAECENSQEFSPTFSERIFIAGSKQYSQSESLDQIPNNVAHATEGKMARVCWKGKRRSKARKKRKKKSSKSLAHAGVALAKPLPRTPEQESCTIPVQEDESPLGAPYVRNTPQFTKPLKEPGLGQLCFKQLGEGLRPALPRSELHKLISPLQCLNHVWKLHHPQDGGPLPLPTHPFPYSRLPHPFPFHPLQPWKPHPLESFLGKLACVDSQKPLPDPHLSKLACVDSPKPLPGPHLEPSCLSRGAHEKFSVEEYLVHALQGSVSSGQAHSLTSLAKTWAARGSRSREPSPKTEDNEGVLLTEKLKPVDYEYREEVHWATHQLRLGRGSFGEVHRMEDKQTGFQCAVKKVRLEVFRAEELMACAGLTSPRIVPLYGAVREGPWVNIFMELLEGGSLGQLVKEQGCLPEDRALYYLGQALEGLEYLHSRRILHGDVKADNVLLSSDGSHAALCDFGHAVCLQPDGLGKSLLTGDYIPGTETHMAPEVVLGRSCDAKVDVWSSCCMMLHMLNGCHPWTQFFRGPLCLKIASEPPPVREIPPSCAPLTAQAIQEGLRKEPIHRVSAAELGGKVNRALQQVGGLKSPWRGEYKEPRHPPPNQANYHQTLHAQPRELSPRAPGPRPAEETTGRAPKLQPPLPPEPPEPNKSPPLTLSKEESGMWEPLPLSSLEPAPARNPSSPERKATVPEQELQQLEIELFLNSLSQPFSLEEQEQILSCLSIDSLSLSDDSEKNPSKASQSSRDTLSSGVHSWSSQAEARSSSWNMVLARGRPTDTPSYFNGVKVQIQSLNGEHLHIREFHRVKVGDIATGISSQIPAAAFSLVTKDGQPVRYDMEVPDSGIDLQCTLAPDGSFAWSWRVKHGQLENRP
Experimental: as §1

[23] = biological target: T23, NIM1 (Homo sapiens, UniProt Q8IY84)
T23 construct: purchased Eurofins Discovery (DiscoverX KINOMEscan scanMAX)
T23 sequence (Q8IY84 whole entry): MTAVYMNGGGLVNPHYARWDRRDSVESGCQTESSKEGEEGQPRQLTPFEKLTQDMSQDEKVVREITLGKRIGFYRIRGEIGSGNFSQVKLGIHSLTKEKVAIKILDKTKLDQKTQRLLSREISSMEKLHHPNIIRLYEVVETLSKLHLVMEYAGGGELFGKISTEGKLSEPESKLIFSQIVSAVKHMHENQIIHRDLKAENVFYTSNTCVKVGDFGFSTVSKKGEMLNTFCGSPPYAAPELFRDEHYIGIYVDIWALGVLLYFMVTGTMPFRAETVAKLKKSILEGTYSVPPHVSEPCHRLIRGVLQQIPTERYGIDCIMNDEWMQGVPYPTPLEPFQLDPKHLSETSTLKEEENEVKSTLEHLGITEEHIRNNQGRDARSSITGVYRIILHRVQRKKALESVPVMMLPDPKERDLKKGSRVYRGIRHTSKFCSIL
Experimental: as §1

[24] = biological target: T24, PFTAIRE2 (Homo sapiens, UniProt Q96Q40)
T24 construct: purchased Eurofins Discovery (DiscoverX KINOMEscan scanMAX)
Experimental: as §1

[25] = biological target: T25, RAF1 (Homo sapiens, UniProt P04049)
T25 construct: purchased Eurofins Discovery (DiscoverX KINOMEscan scanMAX)
Experimental: as §1

[26] = biological target: T26, RPS6KA4(Kin.Dom.2-C-terminal) (Homo sapiens, UniProt O75676)
T26 construct: RPS6KA4(Kin.Dom.2-C-terminal); purchased Eurofins Discovery (DiscoverX KINOMEscan scanMAX)
Experimental: as §1

[27] = biological target: T27, RPS6KA5(Kin.Dom.1-N-terminal) (Homo sapiens, UniProt O75582)
T27 construct: RPS6KA5(Kin.Dom.1-N-terminal); purchased Eurofins Discovery (DiscoverX KINOMEscan scanMAX)
T27 sequence (O75582 1-387 limits assumed): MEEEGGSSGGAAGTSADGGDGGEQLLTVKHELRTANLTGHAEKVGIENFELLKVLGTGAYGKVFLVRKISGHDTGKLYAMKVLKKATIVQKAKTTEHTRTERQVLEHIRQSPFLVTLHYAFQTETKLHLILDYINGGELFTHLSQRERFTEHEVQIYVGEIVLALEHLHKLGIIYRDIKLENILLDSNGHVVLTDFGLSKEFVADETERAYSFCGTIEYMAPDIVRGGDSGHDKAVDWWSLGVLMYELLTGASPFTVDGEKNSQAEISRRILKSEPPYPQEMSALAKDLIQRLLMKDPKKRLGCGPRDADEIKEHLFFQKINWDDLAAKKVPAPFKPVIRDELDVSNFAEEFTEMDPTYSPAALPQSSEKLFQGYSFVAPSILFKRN
Experimental: as §1

[28] = biological target: T28, SGK2 (Homo sapiens, UniProt Q9HBY8)
T28 construct: purchased Eurofins Discovery (DiscoverX KINOMEscan scanMAX)
T28 sequence (Q9HBY8 whole entry): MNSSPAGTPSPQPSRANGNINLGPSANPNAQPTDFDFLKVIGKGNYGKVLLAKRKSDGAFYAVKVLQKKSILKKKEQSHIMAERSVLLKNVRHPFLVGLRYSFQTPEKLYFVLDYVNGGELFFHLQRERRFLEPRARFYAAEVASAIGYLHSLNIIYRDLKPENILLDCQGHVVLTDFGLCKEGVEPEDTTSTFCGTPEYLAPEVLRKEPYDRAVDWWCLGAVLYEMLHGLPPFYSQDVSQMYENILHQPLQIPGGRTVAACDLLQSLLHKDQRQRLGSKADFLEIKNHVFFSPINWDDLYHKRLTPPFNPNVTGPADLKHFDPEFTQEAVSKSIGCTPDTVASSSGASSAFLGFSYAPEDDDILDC
Experimental: as §1

[29] = biological target: T29, SRPK2 (Homo sapiens, UniProt P78362)
T29 construct: purchased Eurofins Discovery (DiscoverX KINOMEscan scanMAX)
Experimental: as §1

[30] = biological target: T30, SRPK3 (Homo sapiens, UniProt Q9UPE1)
T30 construct: purchased Eurofins Discovery (DiscoverX KINOMEscan scanMAX)
Experimental: as §1

[31] = biological target: T31, TLK2 (Homo sapiens, UniProt Q86UE8)
T31 construct: purchased Eurofins Discovery (DiscoverX KINOMEscan scanMAX)
Experimental: as §1

[32] = biological target: T32, TRKB (Homo sapiens, UniProt Q16620)
T32 construct: purchased Eurofins Discovery (DiscoverX KINOMEscan scanMAX)
Experimental: as §1

[33] = biological target: T33, TYRO3 (Homo sapiens, UniProt Q06418)
T33 construct: purchased Eurofins Discovery (DiscoverX KINOMEscan scanMAX)
Experimental: as §1

`Cc1cc(Nc2ccc(F)c(CC3(C(=O)N4CCC(F)(CN5CCN(c6ccc(N7CCC(=O)NC7=O)cn6)CC5)CC4)CCN(Cc4cccc(Cl)c4F)CC3)n2)n[nH]1` [SK5527] was tested, and the remaining binding at 0.1 µM ([1]; 100 nM) was 62%, the remaining binding at 1 µM ([1]; 1000 nM) was 17% and the remaining binding at 0.1 µM ([2]; 100 nM) was 68%. The remaining binding at 1 µM ([2]; 1000 nM) was 70%, the remaining binding at 0.1 µM ([3]; 100 nM) was 100% and the remaining binding at 1 µM ([3]; 1000 nM) was 98%. It also gave a remaining binding at 0.1 µM ([4]; 100 nM) of 73%, a remaining binding at 1 µM ([4]; 1000 nM) of 71% and a remaining binding at 0.1 µM ([5]; 100 nM) of 91%. It also gave a remaining binding at 1 µM ([5]; 1000 nM) of 92%, a remaining binding at 0.1 µM ([6]; 100 nM) of 77% and a remaining binding at 1 µM ([6]; 1000 nM) of 72%. The remaining binding at 0.1 µM ([7]; 100 nM) was 100%, the remaining binding at 1 µM ([7]; 1000 nM) was 100% and the remaining binding at 0.1 µM ([8]; 100 nM) was 82%. It also gave a remaining binding at 1 µM ([8]; 1000 nM) of 73%, a remaining binding at 0.1 µM ([9]; 100 nM) of 99% and a remaining binding at 1 µM ([9]; 1000 nM) of 94%. It also gave a remaining binding at 0.1 µM ([10]; 100 nM) of 91%, a remaining binding at 1 µM ([10]; 1000 nM) of 82% and a remaining binding at 0.1 µM ([11]; 100 nM) of 100%. The remaining binding at 1 µM ([11]; 1000 nM) was 100%, the remaining binding at 0.1 µM ([12]; 100 nM) was 100% and the remaining binding at 1 µM ([12]; 1000 nM) was 97%. The remaining binding at 0.1 µM ([13]; 100 nM) was 100%, the remaining binding at 1 µM ([13]; 1000 nM) was 92% and the remaining binding at 0.1 µM ([14]; 100 nM) was 75%. The remaining binding at 1 µM ([14]; 1000 nM) was 67%, the remaining binding at 0.1 µM ([15]; 100 nM) was 89% and the remaining binding at 1 µM ([15]; 1000 nM) was 54%. It also gave a remaining binding at 0.1 µM ([16]; 100 nM) of 100%, a remaining binding at 1 µM ([16]; 1000 nM) of 41% and a remaining binding at 0.1 µM ([17]; 100 nM) of 81%. For the same compound, the remaining binding at 1 µM ([17]; 1000 nM) was 79%, the remaining binding at 0.1 µM ([18]; 100 nM) was 81% and the remaining binding at 1 µM ([18]; 1000 nM) was 92%. The remaining binding at 0.1 µM ([19]; 100 nM) was 94%, the remaining binding at 1 µM ([19]; 1000 nM) was 76% and the remaining binding at 0.1 µM ([20]; 100 nM) was 76%. It also gave a remaining binding at 1 µM ([20]; 1000 nM) of 55%, a remaining binding at 0.1 µM ([21]; 100 nM) of 96% and a remaining binding at 1 µM ([21]; 1000 nM) of 54%. The remaining binding at 0.1 µM ([22]; 100 nM) was 100%, the remaining binding at 1 µM ([22]; 1000 nM) was 88% and the remaining binding at 0.1 µM ([23]; 100 nM) was 58%. The remaining binding at 1 µM ([23]; 1000 nM) was 76%, the remaining binding at 0.1 µM ([24]; 100 nM) was 75% and the remaining binding at 1 µM ([24]; 1000 nM) was 80%. The remaining binding at 0.1 µM ([25]; 100 nM) was 100%, the remaining binding at 1 µM ([25]; 1000 nM) was 100% and the remaining binding at 0.1 µM ([26]; 100 nM) was 85%. For the same compound, the remaining binding at 1 µM ([26]; 1000 nM) was 77%, the remaining binding at 0.1 µM ([27]; 100 nM) was 95% and the remaining binding at 1 µM ([27]; 1000 nM) was 100%. It also gave a remaining binding at 0.1 µM ([28]; 100 nM) of 93%, a remaining binding at 1 µM ([28]; 1000 nM) of 83% and a remaining binding at 0.1 µM ([29]; 100 nM) of 93%. It also gave a remaining binding at 1 µM ([29]; 1000 nM) of 79%, a remaining binding at 0.1 µM ([30]; 100 nM) of 100% and a remaining binding at 1 µM ([30]; 1000 nM) of 97%. For the same compound, the remaining binding at 0.1 µM ([31]; 100 nM) was 100%, the remaining binding at 1 µM ([31]; 1000 nM) was 94% and the remaining binding at 0.1 µM ([32]; 100 nM) was 95%. For the same compound, the remaining binding at 1 µM ([32]; 1000 nM) was 47%, the remaining binding at 0.1 µM ([33]; 100 nM) was 80% and the remaining binding at 1 µM ([33]; 1000 nM) was 89%.
